Reference: US4356167A, “Liposome drug delivery systems” (Sandoz, Inc., priority 1981, dated 1982)
Values joined by “and” are separate entries in the source; they are usually repeats but may differ in a detail not shown here. Equal entries are not always repeated.

Test system: blood glucose
Experiment: Blood glucose levels in mice after oral or i.m. dosing of insulin liposomes (Example 2)
Type: in vivo
Settings: 10μ/kg
Description: Insulin concentration of the liposomes was 11.69%. Suspensions of the liposome compositions A and B were given orally to mice at concentrations of A-50 U/0.1 ml/10 gms. of body weight; and B-25 U/0.1 ml/10 gms of body weight. A control group received 0.5% carboxymethyl cellulose concurrently.
Composition A was diluted 1:10 for injection i.m. as a control.
After two and four hours the animals were sacrificed by anesthetizing with 85 mg/kg of sodium hexobarbital i.p. and collecting blood via cardiac puncture. The collected blood was placed in an Auto Analyzer Cup containing 0.025 cc. of heparin 1000 units/ml. The blood samples were capped, shaken, and kept in an ice bucket. Glucose was determined by the Auto Analyzer potassium ferriccyanide method No. N-2b.
Carboxymethyl cellulose given either by p.o. or i.m. route has the same effect on blood glucose. Therefore, the test materials whether given p.o. or i.m. can be related to the carboxymethyl cellulose control.

Bovine Pancreatic Insulin: Bovine pancreatic insulin, Sigma Chemical
% Δ blood glucose 2 Hrs. Post (down arrow, decrease vs control) (2 hrs): 82%
Blood glucose levels 2 Hrs. Post, individual animals (2 hrs): 14 MG/100 ml and 12 MG/100 ml and 16 MG/100 ml
Blood glucose levels 2 Hrs. Post, mean (2 hrs): 14.0 ± 8 MG/100 ml
% Δ blood glucose 4 Hrs. Post (down arrow, decrease vs control) (4 hrs): 75%
Blood glucose levels 4 Hrs. Post, individual animals (4 hrs): 37 MG/100 ml and 10 MG/100 ml and 27 MG/100 ml and 31 MG/100 ml
Blood glucose levels 4 Hrs. Post, mean (4 hrs): 26.3 MG/100 ml
